Measured values: patent publication US10301308B2, “Azetidine derivatives for tau imaging” (Eli Lilly and Company, priority 2015, dated 2019)

Key:
tau protein = experiment: Clinical PET imaging of tau protein in the brain (SUVr); type: in vivo, human
Method: Clinical evaluation of 3-(3-[18F]-Fluoroazetidin-1-yl)-8-methylbenzo[4,5]imidazo[1,2-a]pyridine (Compound 8) as a PET radioligand for imaging tau protein deposition in patients with AD or other neurodegenerative disorders is conducted in healthy volunteers. AD patients, or Chronic Traumatic Encephalopathy (CTE) subjects, by completion of one or more PET scans with Compound 8. Dynamic PET imaging is acquired on a Siemens ECAT EXACT HR+ over 150 minutes following Compound 8 or [18F]AV-1451 injection (0-60 and 90-150 minute imaging segments). Compound 8 or [18F]AV-1451 scans are acquired similarly in two imaging sessions. A brain MRI is also obtained. PET and MRI images are aligned and normalized, and ATLAS-based volumes of interest (VOI) are applied to the dynamic PET series. Compound 8 or [18F]AV-1451 are evaluated in terms of kinetic profile as well as target region to cerebellum standardized uptake value ratio (SUVr between 100-120 min) between healthy volunteers and AD or CTE subjects.

[1] = test system: native tau aggregates vs native β-amyloid aggregates in human brain sections; experiment: Autoradiography selectivity towards tau versus β amyloid in AD human brain tissue; type: binding
From the text: Based on the anti-tau and anti-amyloid immunostaining results of brain sections, three groups of human brain sections are selected for autoradiography experiments to determine the native tau-binding selectivity of 3-(3-[18F]-fluoroazetidin-1-yl)-8-methylbenzo[4,5]imidazo[1,2-a]pyridine. Group A are tau-rich AD brain slices (labeled as Tau+Aβ+), Group B are tau-poor AD brain slices (marked as Tau-Aβ+), and Group C are Tau-Aβ− normal brain slices. […] The human AD brain sections in Group B are #33562, #32656, #33998, #35682, and #33563. The normal human brain sections in group C are #29092 and #32566. Tissue slices from the same donors are used to calculate selectivity for all three compounds for testing according to Assay Example 5. Autoradiography is performed for each of these three groups of brains on adjacent 10 μm sections with the amyloid tracer [18F]W372 to quantify the β-amyloid burden. [18F]W372 is a selective amyloid binding tracer discovered by Siemens and evaluated under IND 105173. Sections are covered with 0.5 ml of 3-(3-[18F]-fluoroazetidin-1-yl)-8-methylbenzo[4,5]imidazo[1,2-a]pyridine (in 2.5:2.5:95 DMSO:EtOH:1×PBS, about 20 μCi/slide) and incubated for 1.5 hrs. Then successive washing cycles (1 min PBS, 2 min 30% EtOH/PBS, 2 min 70% EtOH/PBS, 1 min PBS) are employed to remove any unbound tracer. The sections are air dried, placed on a phosphorimaging plate (Fuji IP plate), and exposed overnight. The IP plate is read using a GE Healthcare Life Sciences Typhoon FLA 7000 Phosphorimager. The signal intensity of the grey matter is measured using Fujifilm Multi Gauge software. After subtracting the background signal (signal in the cortex region of Group C), the signal of individual sections of Group A and B are normalized with corresponding signal from autoradiography of the respective adjacent sections with [18F]W372. The calculations are based on Group B brain sections #32656 and #33998, which have undetectable tau pathology by immunohistochemistry. The normalized signal for 3-(3-[18F]-fluoroazetidin-1-yl)-8-methylbenzo[4,5]imidazo[1,2-a]pyridine in Group B brain sections is the relative signal level of 3-(3-[18F]-fluoroazetidin-1-yl)-8-methylbenzo[4,5]imidazo[1,2-a]pyridine to [F-18]W372 resulting from binding to native β-amyloid aggregates. The binding level of 3-(3-[18F]-fluoroazetidin-1-yl)-8-methylbenzo[4,5]imidazo[1,2-a]pyridine to native tau-aggregates in Group A sections is estimated by subtracting the amount of the total signal attributable to binding to 3-amyloid (calculated by multiplying the total signal from [18F]W372 binding to β-amyloid in the adjacent section by the relative signal of 3-(3-[18F]-fluoroazetidin-1-yl)-8-methylbenzo[4,5]imidazo[1,2-a]pyridine to [18F]W372 determined from the Group B sections). The resulting difference is then divided by the signal attributable to binding to β-amyloid to estimate the selectivity of 3-(3-[18F]-fluoroazetidin-1-yl)-8-methylbenzo[4,5]imidazo[1,2-a]pyridine. […] The selectivity of 3-(3-[18F]-fluoroazetidin-1-yl)-8-methylbenzo[4,5]imidazo[1,2-a]pyridine binding to native tau aggregates vs. binding native β-amyloid aggregates is reflected by the ratio of Group A (Tau+Aβ+) signal to the signal of the brain sections #32656 and #33998.

In the case of Cc1ccc2nc3cc(N4CC([18F])C4)ccn3c2c1 [Compound 8, 3-(3-[18F]-fluoroazetidin-1-yl)-8-methylbenzo[4,5]imidazo[1,2-a]pyridine], the “SUVr values compared to [18F]AV-1451” value (tau protein; AD subjects) is reported as “slightly higher SUVr values compared to [18F]AV-1451”, the “mean SUVr averaged over all regions” value (tau protein; AD subjects) is reported as ~1.6 and the “uptake in cortical brain regions, AD subjects compared with healthy controls” value (tau protein; AD subjects vs healthy controls) is reported as “Higher uptake”. The “SUVr in other cortical regions” value (tau protein; CTE subject) was ~1.0, the “SUVr in focal sub-regions with high uptake” value (tau protein; CTE subject, sub-regions of inferior lateral parietal, superior parietal and posterior temporal cortex) was ~1.5 and the “mean SUVr averaged over all regions” value (tau protein; healthy volunteer subjects) was ~1.1. The “SUVr in cortical regions” value (tau protein; healthy volunteer subjects, target region to cerebellum) was 1.0-1.1, the “selectivity ratio for Tau:Aβ” value ([1]; 5 Tau+Aβ+ and 2 Tau-Aβ+ brain specimens) was “approximately 26.6±4.5” and the “autoradiography signal on grey matter (cortex region)” value ([1]; Group A (Tau+Aβ+) sections) was “Strong signal”. For the same compound, the “autoradiography signal on cortex regions” value ([1]; Group B (Tau-Aβ+) sections) was “weak or no signal”, the autoradiography signal ([1]; Group C (Tau-Aβ−) normal brain sections) was “No autoradiography signal” and the “grey matter to white matter (GM/WM) signal ratio” value ([1]; autoradiography, Tau+Aβ+ brain specimens) was “approximately 17.3±1.7”. The “selectivity of binding to native tau aggregates vs native β-amyloid aggregates” value ([1]; grey matter region of human AD brains) was “approximately 27 fold” and the “autoradiography signal on normal brain sections, grey vs white matter” value ([1]; normal brain sections) was “weak and even”.
